How the values were obtained:
Assay in all cases: Radioligand binding assay: inhibition of binding of 125I-GnRH-A to GnRH receptors (membranes)
human GnRH receptors = biological target: T1, human GnRH receptors (Homo sapiens, UniProt P30968); conditions: Human GnRH receptor; competition with 125I-GnRH-A; Ki calculated from IC50 (Cheng et al.)
T1 construct: expressed in transfected cells; host or cells: HEK 293
T1 sequence (P30968 1-328): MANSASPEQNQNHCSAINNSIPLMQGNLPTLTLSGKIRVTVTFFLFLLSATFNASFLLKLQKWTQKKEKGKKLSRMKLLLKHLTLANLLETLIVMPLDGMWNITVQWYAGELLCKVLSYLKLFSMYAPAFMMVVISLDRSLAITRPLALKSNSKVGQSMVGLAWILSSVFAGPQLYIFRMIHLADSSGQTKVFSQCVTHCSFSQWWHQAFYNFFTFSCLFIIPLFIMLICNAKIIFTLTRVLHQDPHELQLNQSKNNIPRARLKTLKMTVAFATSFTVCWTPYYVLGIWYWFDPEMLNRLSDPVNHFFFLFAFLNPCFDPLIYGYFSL
In short: (§1)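 Membranes from HEK 293 expressing mouse or human receptor, or rat pituitaries, incubated 1 h at RT with ~0.04–0.06 nM ¹²⁵I-[des-Gly¹⁰,D-Ala⁶]GnRH ethylamide and competitor (0.1–10,000 nM) in HEPES pH 7.4 with MgCl2, EDTA, BSA. Filtration onto PEI-soaked GF/C filters, scintillation counting; Ki from IC50 by Cheng–Prusoff.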

mouse GnRH receptors = biological target: T2, mouse GnRH receptors (Mus musculus, UniProt Q01776); conditions: Mouse GnRH receptor; competition with 125I-GnRH-A; Ki calculated from IC50 (Cheng et al.)
T2 construct: expressed in transfected cells; host or cells: HEK 293
T2 sequence (Q01776 1-327): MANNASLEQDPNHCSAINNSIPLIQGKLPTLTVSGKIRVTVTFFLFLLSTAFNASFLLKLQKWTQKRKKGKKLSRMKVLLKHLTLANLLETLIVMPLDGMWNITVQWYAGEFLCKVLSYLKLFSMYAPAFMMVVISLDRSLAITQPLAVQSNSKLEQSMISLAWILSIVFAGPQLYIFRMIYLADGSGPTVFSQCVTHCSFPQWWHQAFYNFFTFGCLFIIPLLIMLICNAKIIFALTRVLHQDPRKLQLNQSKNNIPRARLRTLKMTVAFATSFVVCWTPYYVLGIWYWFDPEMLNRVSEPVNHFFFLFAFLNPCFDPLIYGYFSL
In short: as §1

rat GnRH receptor = biological target: T3, rat GnRH receptor (Rattus norvegicus, UniProt P30969); conditions: competition with 125I-GnRH-A, Ki calculated from IC50 (Cheng et al.)
T3 construct: rat pituitaries (Pel Freez Biologicals, Rogers, Ark.) are homogenized in buffer A; tissue Pel Freez Biologicals; host or cells: rat pituitaries
T3 sequence (P30969 1-327): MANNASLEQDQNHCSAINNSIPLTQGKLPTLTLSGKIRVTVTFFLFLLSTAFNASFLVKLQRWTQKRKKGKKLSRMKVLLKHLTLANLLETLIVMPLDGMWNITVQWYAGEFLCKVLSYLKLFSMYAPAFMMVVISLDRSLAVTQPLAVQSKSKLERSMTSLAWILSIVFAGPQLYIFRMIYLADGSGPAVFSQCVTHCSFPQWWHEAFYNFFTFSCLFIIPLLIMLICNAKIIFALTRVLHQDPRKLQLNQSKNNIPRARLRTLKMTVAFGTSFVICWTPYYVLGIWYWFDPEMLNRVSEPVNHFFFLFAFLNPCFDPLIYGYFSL
In short: as §1

Ki (human GnRH receptors) | Ki (mouse GnRH receptors) | Ki (rat GnRH receptor) | SMILES
126 nM | 450 nM | 384 nM | Cc1cc(NNC(=O)c2ccc(Oc3ccc4c(c3)C(C)(C)CCC4(C)C)o2)nc2c1c(C)nn2C [Example F4, 5-[(5,5,8,8-tetramethyl-5,6,7,8-tetrahydro-2-naphthalenyl)oxy]-N′-(1,3,4-trimethyl-1H-pyrazolo[3,4-b]pyridin-6-yl)-2-furohydrazide]
31 nM | 38 nM | 59 nM | COc1cc2c(c(C)c1Oc1ccc(C(=O)NNc3cc(C)c4c(C)nn(C)c4n3)o1)C(C)(C)CCC2(C)C [Example I25, 5-(3-Methoxy-1,5,5,8,8-pentamethyl-5,6,7,8-tetrahydro-naphthalen-2-yloxy)-furan-2-carboxylic acid N′-(1,3,4-trimethyl-1H-pyrazolo[3,4-b]pyridin-6-yl)-hydrazide]
165 nM | 260 nM | 1160 nM | Cc1cc(NNC(=O)c2ccc(Oc3cc(C(C)(C)C)c(Br)cc3Br)o2)nc2c1c(C)nn2C [Example I12, 5-(2,4-Dibromo-5-tert-butyl-phenoxy)-furan-2-carboxylic acid N′-(1,3,4-trimethyl-1H-pyrazolo[3,4-b]pyridin-6-yl)-hydrazide]
0.3 nM | 2.6 nM | 4.2 nM | COc1c(Oc2ccc(C(=O)NNc3cc(C)c4c(C)nn(C)c4n3)o2)c(C)cc2c1C(C)(C)CCC2(C)C [Example I28, 5-(1-Methoxy-3,5,5,8,8-pentamethyl-5,6,7,8-tetrahydro-naphthalen-2-yloxy)-furan-2-carboxylic acid N′-(1,3,4-trimethyl-1H-pyrazolo[3,4-b]pyridin-6-yl)-hydrazide]
46 nM | 33 nM | 39 nM | Cc1cc2c(cc1Cc1ccc(C(=O)NNc3ncc(C(F)(F)F)cc3Cl)o1)C(C)(C)CCC2(C)C [Example C12, N′-[3-Chloro-5-(trifluoromethyl)-2-pyridinyl]-5-[(3,5,5,8,8-pentamethyl-5,6,7,8-tetrahydro-2-naphthalenyl)methyl]-2-furohydrazide]
146 nM | 160 nM | 230 nM | COc1c(Oc2ccc(C(=O)NNc3cc(C)c4c(C)nn(C)c4n3)o2)c(C)cc2c1C(C)(C)CCC2 [Example I10, 5-(1-Methoxy-3,8,8-trimethyl-5,6,7,8-tetrahydro-naphthalen-2-yloxy)-furan-2-carboxylic acid N′-(1,3,4-trimethyl-1H-pyrazolo[3,4-b]pyridin-6-yl)-hydrazide]
63 nM | 67 nM | 84 nM | Cc1cc2c(cc1Cc1ccc(C(=O)NNc3ncccc3C(F)(F)F)o1)C(C)(C)CCC2(C)C [Example C11, 5-[(3,5,5,8,8-Pentamethyl-5,6,7,8-tetrahydro-2-naphthalenyl)methyl]-N′-[3-(trifluoromethyl)-2-pyridinyl]-2-furohydrazide]
50 nM | 61 nM | 79 nM | Cc1cc(NNC(=O)c2ccc(Oc3cc(C(C)(C)C)ccc3Br)o2)nc2c1c(C)nn2C [Example I6, 5-(2-Bromo-5-tert-butyl-phenoxy)-furan-2-carboxylic acid N′-(1,3,4-trimethyl-1H-pyrazolo[3,4-b]pyridin-6-yl)-hydrazide]
1.8 nM | 3.7 nM | 3.9 nM | Cc1cc2c(cc1Oc1ccc(C(=O)NNc3cc(C)c4c(C)nn(C)c4n3)o1)C(C)(C)C(C)C2(C)C (stereo not drawn) [Example M4, 5-(1,1,2,3,3,6-Hexamethyl-indan-5-yloxy)-furan-2-carboxylic acid N′-(1,3,4-trimethyl-1H-pyrazolo[3,4-b]pyridin-6-yl)-hydrazide]
170 nM | 250 nM | 790 nM | Cc1cc2c(c(Br)c1Oc1ccc(C(=O)NNc3cc(C)c4c(C)nn(C)c4n3)o1)C(C)(C)CCC2 [Example I11, 5-(1-Bromo-3,8,8-trimethyl-5,6,7,8-tetrahydro-naphthalen-2-yloxy)-furan-2-carboxylic acid N′-(1,3,4-trimethyl-1H-pyrazolo[3,4-b]pyridin-6-yl)-hydrazide]
101 nM | 122 nM | 370 nM | Cc1cc(NNC(=O)c2ccc(Oc3cc4c(cc3Cl)N(C)CCC4(C)C)o2)nc2c1c(C)nn2C [Example I27, 5-(7-Chloro-1,4,4-trimethyl-1,2,3,4-tetrahydro-quinolin-6-yloxy)-furan-2-carboxylic acid N′-(1,3,4-trimethyl-1H-pyrazolo[3,4-b]pyridin-6-yl)-hydrazide]
6.3 nM | 16 nM | 29 nM | Cc1cc2c(c(Br)c1Oc1ccc(C(=O)NNc3cc(C)c4c(C)nn(C)c4n3)o1)C(C)(C)CCC2(C)C [Example I8, 5-(1-Bromo-3,5,5,8,8-pentamethyl-5,6,7,8-tetrahydro-naphthalen-2-yloxy)-furan-2-carboxylic acid N′-(1,3,4-trimethyl-1H-pyrazolo[3,4-b]pyridin-6-yl)-hydrazide]
260 nM | 850 nM | 1200 nM | Cc1cc(C)c(C)c(Cc2ccc(C(=O)NNc3cc(C)c4c(C)nn(C)c4n3)o2)c1C [Example J12, 5-(2,3,5,6-Tetramethylbenzyl)-N′-(1,3,4-trimethyl-1H-pyrazolo[3,4-b]pyridin-6-yl)-2-furohydrazide]
95 nM | 84 nM | 65 nM | Cc1ccc(C(C)(C)C)cc1Cc1ccc(C(=O)NNc2ccc3ccccc3n2)o1 [Example B3, 5-[5-(tert-butyl)-2-methylbenzyl]-N′-(2-quinolinyl)-2-furohydrazide]
58 nM | 59 nM | 154 nM | Cc1cc2c(cc1Oc1ccc(C(=O)NNc3cc(C)c4c(C)nn(C)c4n3)o1)C(c1ccccc1)CCC2 (stereo not drawn) [Example I18, 5-(3-Methyl-8-phenyl-5,6,7,8-tetrahydro-naphthalen-2-yloxy)-furan-2-carboxylic acid N′-(1,3,4-trimethyl-1H-pyrazolo[3,4-b]pyridin-6-yl)-hydrazide]
3.8 nM | 4 nM | 7.3 nM | Cc1cc2c(cc1Oc1ccc(C(=O)NNc3ccc4ccccc4n3)o1)C(C)(C)CC(C)C2(C)C (stereo not drawn) [Example I20, 5-(3,5,5,6,8,8-Hexamethyl-5,6,7,8-tetrahydro-naphthalen-2-yloxy)-furan-2-carboxylic acid N′-quinolin-2-yl-hydrazide]
30 nM | 130 nM | 245 nM | Cc1sc2c(c1Cc1ccc(C(=O)NNc3cc(C)c4c(C)nn(C)c4n3)o1)C(C)(C)CCC2(C)C [Example J28, 5-(2,4,4,7,7-Pentamethyl-4,5,6,7-tetrahydro-benzo[b]thiophen-3-ylmethyl)-furan-2-carboxylic acid N′-(1,3,4-trimethyl-1H-pyrazolo[3,4-b]pyridin-6-yl)-hydrazide]
140 nM | 280 nM | 660 nM | Cc1sc2c(c1Cc1ccc(C(=O)NNc3cc(C)c4c(C)nn(C)c4n3)o1)C(C)(C)CCC2(C)C [Example J23]
170 nM | 480 nM | 290 nM | Cc1cc(C)c(-c2ccccc2)cc1Cc1ccc(C(=O)NNc2cc(C)c3c(C)nn(C)c3n2)o1 [Example J18, 5-[(4,6-dimethyl[1,1′-biphenyl]-3-yl)methyl]-N′-(1,3,4-trimethyl-1H-pyrazolo[3,4-b]pyridin-6-yl)-2-furohydrazide]
1.2 nM | 2.1 nM | 3.8 nM | Cc1cc2c(c(C)c1Oc1ccc(C(=O)NNc3cc(C)c4c(C)nn(C)c4n3)o1)C(C)(C)CCC2(C)C [Example I9, 5-(1,3,5,5,8,8-Hexamethyl-5,6,7,8-tetrahydro-naphthalen-2-yloxy)-furan-2-carboxylic acid N′-(1,3,4-trimethyl-1H-pyrazolo[3,4-b]pyridin-6-yl)-hydrazide]
28 nM | 22 nM | 86 nM | Cc1cc2c(cc1Oc1ccc(C(=O)NNc3cc(C)c4c(C)nn(C)c4n3)o1)C(C)(C)OC2 [Example N2, 5-(3,3,6-Trimethyl-1,3-dihydro-isobenzofuran-5-yloxy)-furan-2-carboxylic acid N′-(1,3,4-trimethyl-1H-pyrazolo[3,4-b]pyridin-6-yl)-hydrazide]
